According to patent US20250230155A1 (Vanderbilt University, priority 2021, published 2025):

Biological target: T1, human mAChR M4 (Homo sapiens, UniProt P08173)
T1 construct: expressed in transfected cells
T1 sequence (P08173 1-479): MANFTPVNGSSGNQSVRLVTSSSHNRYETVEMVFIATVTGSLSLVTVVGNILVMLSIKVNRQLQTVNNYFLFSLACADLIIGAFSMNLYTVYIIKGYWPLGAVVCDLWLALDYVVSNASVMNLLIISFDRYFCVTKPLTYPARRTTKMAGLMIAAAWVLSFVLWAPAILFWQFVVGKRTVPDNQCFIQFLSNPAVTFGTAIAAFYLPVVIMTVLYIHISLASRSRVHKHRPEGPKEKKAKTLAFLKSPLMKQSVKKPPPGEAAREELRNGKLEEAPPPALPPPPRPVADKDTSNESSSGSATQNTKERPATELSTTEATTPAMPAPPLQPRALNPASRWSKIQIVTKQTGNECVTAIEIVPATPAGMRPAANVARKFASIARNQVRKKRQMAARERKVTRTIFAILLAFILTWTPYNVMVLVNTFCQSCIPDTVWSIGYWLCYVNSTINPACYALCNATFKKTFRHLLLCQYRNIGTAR
Experiment: mAChR M4 cell-based functional assay (calcium mobilization, CHO-K1 hM4-Gqi5 cells)
Conditions: for Emax at 30 µM: CHO-K1, % ACh maximum at 30 μM, human M4; for EC50: positive allosteric modulator activity, increase in the EC20 acetylcholine response, CHO-K1 hM4-Gqi5 cells, read-out: Human M4 EC50
Procedure, shortened: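 CHO-K1 cells stably expressing human M4 with chimeric Gqi5, loaded with Fluo-4 AM; compounds given as 11-point 1:3 curves and calcium flux read on FDSS at 1 Hz. Acetylcholine EC20 added at 144 s, EC80 at 230 s; agonist, PAM (EC20 potentiation) and antagonist (EC80 inhibition) EC50/Emax from four-parameter fits.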

SMILES | Emax at 30 µM [%] | EC50 [nM] | Emax (CHO-K1) [%]
[2H]C([2H])([2H])c1cnc2c(c1)CN(c1nnc(C(=O)N3CC(F)(F)C3)cc1C)CC2 [Example 576, (3,3-difluoroazetidin-1-yl)(5-methyl-6-(3-(methyl-d3)-7,8-dihydro-1,6-naphthyridin-6(5H)-yl)pyridazin-3-yl)methanone] | 71 | 41 | –
[2H]C([2H])([2H])c1cnc2c(c1)CN(c1nnc(C(=O)N3CC4(COC4)C3)cc1C)CC2 [Example 577, (5-methyl-6-(3-(methyl-d3)-7,8-dihydro-1,6-naphthyridin-6(5H)-yl)pyridazin-3-yl)(2-oxa-6-azaspiro[3.3]heptan-6-yl)methanone] | 70 | 109 | –
[2H]C([2H])([2H])c1cnc2c(c1)CN(c1nnc(C(=O)N3CCCC3)cc1C)CC2 [Example 578, (5-methyl-6-(3-(methyl-d3)-7,8-dihydro-1,6-naphthyridin-6(5H)-yl)pyridazin-3-yl)(pyrrolidin-1-yl)methanone] | 105 | 2440 | –
[2H]C([2H])([2H])c1cnc2c(c1)CN(c1nnc(C(=O)NCc3ccncc3)cc1C)CC2 [Example 579, 5-methyl-6-(3-(methyl-d3)-7,8-dihydro-1,6-naphthyridin-6(5H)-yl)-N-(pyridin-4-ylmethyl)pyridazine-3-carboxamide] | 111 | 50 | –
[2H]C([2H])([2H])c1cnc2c(c1)CN(c1nnc(C(=O)NC3(c4cccnc4)CC3)cc1C)CC2 [Example 580, 5-methyl-6-(3-(methyl-d3)-7,8-dihydro-1,6-naphthyridin-6(5H)-yl)-N-(1-(pyridin-3-yl)cyclopropyl)pyridazine-3-carboxamide] | 75 | 108 | –
Cc1cc(C(=O)NCc2ccncc2)nnc1N1CCc2ncc(CC(F)(F)F)cc2C1 [Example 581, 5-methyl-N-(pyridin-4-ylmethyl)-6-(3-(2,2,2-trifluoroethyl)-7,8-dihydro-1,6-naphthyridin-6(5H)-yl)pyridazine-3-carboxamide] | 96 | 60 | –
Cc1cc(C(=O)N2CCCC2)nnc1N1CCc2ncc(CC(F)(F)F)cc2C1 [Example 582, (5-methyl-6-(3-(2,2,2-trifluoroethyl)-7,8-dihydro-1,6-naphthyridin-6(5H)-yl)pyridazin-3-yl)(pyrrolidin-1-yl)methanone] | 76 | 1910 | –
Cc1cc(C(=O)N2CC(F)(F)C2)nnc1N1CCc2ncc(CC(F)(F)F)cc2C1 [Example 583, (3,3-difluoroazetidin-1-yl)(5-methyl-6-(3-(2,2,2-trifluoroethyl)-7,8-dihydro-1,6-naphthyridin-6(5H)-yl)pyridazin-3-yl)methanone] | 91 | 121 | –
Cc1cc(C(=O)N2CC(CO)(CO)C2)nnc1N1CCc2ncc(CC(F)(F)F)cc2C1 [Example 584, (3,3-bis(hydroxymethyl)azetidin-1-yl)(5-methyl-6-(3-(2,2,2-trifluoroethyl)-7,8-dihydro-1,6-naphthyridin-6(5H)-yl)pyridazin-3-yl)methanone] | 91 | 533 | –
Cc1cc(C(=O)NC2(c3cccnc3)CC2)nnc1N1CCc2ncc(CC(F)(F)F)cc2C1 [Example 585, 5-methyl-N-(1-(pyridin-3-yl)cyclopropyl)-6-(3-(2,2,2-trifluoroethyl)-7,8-dihydro-1,6-naphthyridin-6(5H)-yl)pyridazine-3-carboxamide] | 96 | 482 | –
Cc1cc(C(=O)N2CC(F)C2)nnc1N1CCc2ncc(CC(F)(F)F)cc2C1 [Example 586, (3-fluoroazetidin-1-yl)(5-methyl-6-(3-(2,2,2-trifluoroethyl)-7,8-dihydro-1,6-naphthyridin-6(5H)-yl)pyridazin-3-yl)methanone] | 99 | 176 | –
Cc1cc(C(=O)N2CCOCC2)nnc1N1CCc2ncc(CC(F)(F)F)cc2C1 [Example 587, (5-methyl-6-(3-(2,2,2-trifluoroethyl)-7,8-dihydro-1,6-naphthyridin-6(5/)-yl)pyridazin-3-yl)(morpholino)methanone] | 69 | 6540 | –
Cc1cc(C(=O)N2CC(C)(O)C2)nnc1N1CCc2ncc(CC(F)(F)F)cc2C1 [Example 588, (3-hydroxy-3-methylazetidin-1-yl)(5-methyl-6-(3-(2,2,2-trifluoroethyl)-7,8-dihydro-1,6-naphthyridin-6(5H)-yl)pyridazin-3-yl)methanone] | 93 | 322 | –
COC1CN(C(=O)c2cc(C)c(N3CCc4ncc(CC(F)(F)F)cc4C3)nn2)C1 [Example 589, (3-methoxyazetidin-1-yl)(5-methyl-6-(3-(2,2,2-trifluoroethyl)-7,8-dihydro-1,6-naphthyridin-6(5H)-yl)pyridazin-3-yl)methanone] | 99 | 173 | –
Cc1cc(C(=O)NCc2cncs2)nnc1N1CCc2ncc(CC(F)(F)F)cc2C1 [Example 590, 5-methyl-N-(thiazol-5-ylmethyl)-6-(3-(2,2,2-trifluoroethyl)-7,8-dihydro-1,6-naphthyridin-6(5H)-yl)pyridazine-3-carboxamide] | 94 | 41 | –
O=C1c2cc(Br)c(N3CCc4ncc(C(F)(F)F)cc4C3)nc2OCCN1Cc1ccccc1 [Example 591, 4-benzyl-7-bromo-8-(3-(trifluoromethyl)-7,8-dihydro-1,6-naphthyridin-6(5H)-yl)-3,4-dihydropyrido[3,2-f][1,4]oxazepin-5(2H)-one] | 56 | 1990 | –
Cc1cc2c(nc1N1CCc3ncc(C(F)(F)F)cc3C1)OCCN(Cc1ccccc1)C2=O [Example 592, 4-benzyl-7-methyl-8-(3-(trifluoromethyl)-7,8-dihydro-1,6-naphthyridin-6(5H)-yl)-3,4-dihydropyrido[3,2-f][1,4]oxazepin-5(2H)-one] | 38 | 292 | –
Cc1cc(F)ncc1-c1cnc2c(c1)CN(c1nnc(C#N)cc1C)CC2 [Example 593, 6-(3-(6-fluoro-4-methylpyridin-3-yl)-7,8-dihydro-1,6-naphthyridin-6(5H)-yl)-5-methylpyridazine-3-carbonitrile] | 70 | 876 | –
Cc1cc(C#N)cnc1N1CCc2ncc(Br)cc2C1 [Example 594, 6-(3-bromo-7,8-dihydro-1,6-naphthyridin-6(5H)-yl)-5-methylnicotinonitrile] | – | 132 | 84
Cc1cc(F)c(F)cc1-c1cnc2c(c1)CN(c1ncc(C#N)cc1C)CC2 [Example 595, 6-(3-(4,5-difluoro-2-methylphenyl)-7,8-dihydro-1,6-naphthyridin-6(5H)-yl)-5-methylnicotinonitrile] | 38 | 4470 | –
Cc1cc(F)c(F)cc1-c1cnc2c(c1)CN(c1nnc(C#N)cc1C)CC2 [Example 596, 6-(3-(4,5-difluoro-2-methylphenyl)-7,8-dihydro-1,6-naphthyridin-6(5H)-yl)-5-methylpyridazine-3-carbonitrile] | 54 | 1880 | –
Cc1cc(C#N)cnc1N1CCc2ncc(-c3cc(F)cc(F)c3C)cc2C1 [Example 597, 6-(3-(3,5-difluoro-2-methylphenyl)-7,8-dihydro-1,6-naphthyridin-6(5H)-yl)-5-methylnicotinonitrile] | 69 | 2870 | –
Cc1cc(C#N)nnc1N1CCc2ncc(Nc3ccncc3F)cc2C1 [Example 598, 6-(3-((3-fluoropyridin-4-yl)amino)-7,8-dihydro-1,6-naphthyridin-6(5H)-yl)-5-methylpyridazine-3-carbonitrile] | 98 | 25 | –
Cc1cc(C#N)cnc1N1CCc2ncc(Nc3ccncc3F)cc2C1 [Example 599, 6-(3-((3-fluoropyridin-4-yl)amino)-7,8-dihydro-1,6-naphthyridin-6(5H)-yl)-5-methylnicotinonitrile] | 96 | 7 | –
[2H]C1([2H])Cc2ncc(Nc3cc(C)ncc3F)cc2C([2H])([2H])N1c1nnc(C#N)c(C)c1C [Example 600, 6-(3-((5-fluoro-2-methylpyridin-4-yl)amino)-7,8-dihydro-1,6-naphthyridin-6(5H)-yl-5,5,7,7-d4)-4,5-dimethylpyridazine-3-carbonitrile] | 92 | 26 | –
[2H]C1([2H])Cc2ncc(Nc3cc(C)ncc3F)cc2C([2H])([2H])N1c1ncc(C#N)cc1C [Example 601, 6-(3-((5-fluoro-2-methylpyridin-4-yl)amino)-7,8-dihydro-1,6-naphthyridin-6(5H)-yl-5,5,7,7-d4)-5-methylnicotinonitrile] | 95 | 7 | –
[2H]C1([2H])Cc2ncc(Nc3cccnc3C)cc2C([2H])([2H])N1c1ncc(C#N)cc1C [Example 602, 5-methyl-6-(3-((2-methylpyridin-3-yl)amino)-7,8-dihydro-1,6-naphthyridin-6(5H)-yl-5,5,7,7-d4)nicotinonitrile] | 92 | 35 | –
